# Measured values from patent publication US20080293699A1, “Inhibitors of thapsigargin-induced cell death” (priority 2007, published 2008).
# “Also recorded” adds a separate entry of the source.
# Assays:
# [1] = test system: mouse neural stem cell C17.2; experiment: Thapsigargin-induced death of C17.2 cells (undifferentiated and differentiated), ATP content assay; type: cell-based
# Method: In addition to CSM14.1 cells, when tested at 25 μM, Compound 5962123 protected by >50% against thapsigargin-induced death of several tumor cell lines (HeLa human cervical cancer, SW1 melanoma cell, PPC1, human prostate cancer), mouse neural stem cell C17.2 (both differentiated [neuronal phenotype] and non-differentiated [stem cell phenotype]) as determined by ATP content assay, and primary rat cortical neurons as determined by microscopy assay measuring the percentage of NeuN-immunopositive cells with either normal or apoptotic nuclear morphology (Hoechst dye staining).
# For PC12, cells were stimulated with 20 ng/ml NGF for five days; for C17.2, cells were stimulated with serum reduction, and 1% N2 incubation for three days; for CSM14.1, cells were cultured at 39° C. for 5-7 days.
# CSM14.1 cells = experiment: Tunicamycin-induced cell death of CSM14.1 cells; type: cell-based, rat
# Method: CSM 14.1 cells were plated at a density of 3×10^3 cells/well in 96-well plates and incubated overnight. Cells were pre-incubated with 25 μM of each compound or 100 μM salubrinal for two hours, followed by […] tunicamycin treatment. 72 hours later, cell death rates were measured by flow cytometry analysis. Annexin V-negative population was considered as survivors. In FIG. 13, the white column represents 0.5% DMSO control showing 24% of survival, and the gray column 100 μM salubrinal. Black columns are data from each compound (25 μM) (compound numbers refer to the compounds in Table 9).
# For the experiments shown in FIG. 18, undifferentiated CSM 14.1 cells were plated at 3,000 cells per well in 96-well plates (for the ATP assay) or at 1×10^4 cells per well in 24-well plates (for flow cytometry). The next day, cells were treated with DMSO (0.5%) or hit compounds 25 μM of a compound with 0.5% DMSO final concentration) for two hours, followed by treatment with various cell death-inducing reagents, including 15 μM Thapsigargin (TG) for 24 hrs, 10 μg/mL tunicamycin (TU) for 72 hrs, 2.5 μM staurosporine (STS) for 24 hrs, 50 μM VP16 for 48 hrs, or 30 ng/mL TNF plus 10 μg/mL cyclohexamide (CHX) for 24 hrs. Cellular ATP content was measured for staurosporine samples and TNF/CHX samples, normalizing data relative to cells treated with DMSO alone (the control) and presenting as a percentage of control. For measuring cell death resulting from treatment with tunicamycin and VP16, flow cytometry was used. All assays were performed in triplicate (mean ±SD).
# ASK1 = biological target: T1, ASK1 (Homo sapiens, UniProt Q99683); experiment: ASK1 autophosphorylation in vitro kinase assay; type: biochemical; conditions: up to 50 μM, listed as CID-2878746
# T1 construct: expressed in transfected cells; host or cells: HEK293T
# T1 sequence (Q99683 1-1374): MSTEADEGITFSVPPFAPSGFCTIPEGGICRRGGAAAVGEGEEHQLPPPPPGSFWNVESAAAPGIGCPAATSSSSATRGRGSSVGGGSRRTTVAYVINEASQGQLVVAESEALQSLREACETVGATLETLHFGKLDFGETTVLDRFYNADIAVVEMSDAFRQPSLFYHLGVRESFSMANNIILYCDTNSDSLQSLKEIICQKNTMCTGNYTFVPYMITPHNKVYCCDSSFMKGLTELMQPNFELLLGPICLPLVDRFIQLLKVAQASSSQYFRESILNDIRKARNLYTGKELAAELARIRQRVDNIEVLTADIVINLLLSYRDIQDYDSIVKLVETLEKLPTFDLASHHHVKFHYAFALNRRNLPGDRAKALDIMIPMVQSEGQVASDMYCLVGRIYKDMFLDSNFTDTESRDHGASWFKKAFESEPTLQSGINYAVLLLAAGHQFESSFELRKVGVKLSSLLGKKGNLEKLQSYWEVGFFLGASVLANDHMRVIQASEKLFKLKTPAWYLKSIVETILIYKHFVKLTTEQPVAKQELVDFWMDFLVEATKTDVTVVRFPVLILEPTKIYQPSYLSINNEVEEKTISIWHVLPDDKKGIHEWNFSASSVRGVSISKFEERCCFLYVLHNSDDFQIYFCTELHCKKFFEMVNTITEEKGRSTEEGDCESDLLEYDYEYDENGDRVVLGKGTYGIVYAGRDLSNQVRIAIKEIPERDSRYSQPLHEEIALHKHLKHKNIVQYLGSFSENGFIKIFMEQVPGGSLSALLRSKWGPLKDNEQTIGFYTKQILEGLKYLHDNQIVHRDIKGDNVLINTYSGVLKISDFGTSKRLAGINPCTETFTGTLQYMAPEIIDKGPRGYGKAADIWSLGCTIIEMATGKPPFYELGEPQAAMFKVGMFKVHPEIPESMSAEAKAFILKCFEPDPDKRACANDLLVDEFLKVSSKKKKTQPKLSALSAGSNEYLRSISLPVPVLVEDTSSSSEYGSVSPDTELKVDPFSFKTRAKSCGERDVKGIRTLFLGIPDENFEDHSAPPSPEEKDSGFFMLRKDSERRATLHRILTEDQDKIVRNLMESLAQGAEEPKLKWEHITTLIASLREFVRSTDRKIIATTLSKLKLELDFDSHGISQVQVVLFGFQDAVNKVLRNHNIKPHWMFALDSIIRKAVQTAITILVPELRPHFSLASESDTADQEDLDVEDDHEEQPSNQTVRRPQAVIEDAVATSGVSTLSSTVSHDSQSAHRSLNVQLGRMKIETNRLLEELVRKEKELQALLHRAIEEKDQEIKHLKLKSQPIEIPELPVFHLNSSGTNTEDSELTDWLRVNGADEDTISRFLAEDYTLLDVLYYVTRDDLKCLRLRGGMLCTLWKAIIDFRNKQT
# Method: Suppression of thapsigargin-induced phosphorylation of p38MAPK was also measured by a quantitative ELISA-methods, with IC50 for p38MAPK phosphorylation estimated at <5 μM. In contrast, thapsigargin-induced expression of CHOP, expression of ATF4, proteolytic processing of ATF6, phosphorylation of eIF2a (Ser 51), auto-phosphorylation of Ire1a or auto-phosphorylation of ASK1 were not inhibited directly by CID-2878746 at concentrations up to 50 μM tested by in vitro kinase assay using p32-γ-ATP substrate. […] Thapsigargin-induced reductions in phosphorylation of ASK1 at the serine 967 site in ASK1 transfected 293T cells are inhibited by compound 5962123 at concentrations of 50-100 μM, as determined by immunoblotting using anti-phospho-specific (ser 967) antibody, but thapsigargin-induced changes in phosphorylation of ASK1 at ser 83 and thr 845 are not modulated by compound 5962123 at concentrations as high as 100 μM in ASK1-transfected HEK293T cells.
smiles,measurement,setting,value
"CCN(CC)c1ccc(C2Nc3ccccc3NC3=C2C(=O)CC(c2ccccc2)C3)cc1 (centres unmarked) [Compound 5962123, 6-(4-diethylaminophenyl)-9-phenyl-5,6,8,9,10,11-hexahydrobenzo[c][1,5]benzodiazepin-7-one]",Activity in differentiated C17.2 cells treated with thapsigargin,"[1]; 25 μM, ATP content assay",confirmed
same,"Protection against thapsigargin-induced death, C17.2","[1]; 25 μM, both differentiated and non-differentiated, ATP content assay",> 50%
same,"Cytoprotective activity, C17.2 diff (Result)","[1]; differentiated, thapsigargin 10 μM, ATP content, compound ≦25 μM",+ (+indicates >50% rescue of cell viability relative to untreated cells not exposed to thapsigargin at compound concentration of ≦25 μM)
same,"Cytoprotective activity, C17.2 (Result)","[1]; undifferentiated, thapsigargin 10 μM, ATP content, compound ≦25 μM",+ (+indicates >50% rescue of cell viability relative to untreated cells not exposed to thapsigargin at compound concentration of ≦25 μM)
same,Inhibition of tunicamycin-induced cell death,"CSM14.1 cells; CSM14.1 cells, annexin V flow cytometry where stated",inhibits; also recorded: confirmed
same,"Cytoprotective activity, stimulus Tunicamycin (Result)","CSM14.1 cells; readout Annexin, CSM 14.1, compound ≦25 μM",+ (+indicates ≧50% rescue of cell viability relative to untreated cells not exposed to thapsigargin at compound concentration of ≦25 μM)
same,IC50,"CSM14.1 cells; undifferentiated CSM14.1, ATP content assay, read-out: IC50, inhibition of tunicamycin-induced cell death",10 µM
same,ASK1 autophosphorylation,ASK1,not inhibited
